ChEMBL document CHEMBL3301464, “MMV Malaria Box anti-babesial screening”

What was measured:
[1] = (§1) MMV: Anti-babesial activity assay. Parasite pRBCs at 1% parasitemia were cultivated in 100 ul with 96-well plates at 2.5% and 5% hematocrits. The parasites were cultivated in triplicate for 4 days without replacement of the medium for each concentration of the compound.; type: functional, Babesia equi
[2] = as §1; type: functional, Babesia bovis
[3] = as §1; type: functional, Babesia caballi
[4] = as §1; type: functional, Babesia bigemina

COc1ccc(-c2nc(NC(=O)CS(=O)(=O)c3ccc(F)cc3)sc2C)cc1
IC50 [1]: 13.4 µM | IC50 [2]: 17.9 µM | IC50 [3]: 14.6 µM | IC50 [4]: 17 µM

O=C(Nc1nc(-c2ccccn2)cs1)c1ccccc1Br
IC50 [1]: 5.5 µM | IC50 [2]: 4.6 µM | IC50 [3]: 1 µM | IC50 [4]: 1 µM

CC(C)OCc1cc(CN2CCN(c3cccc(Cl)c3)CC2)c(O)c2ncccc12
IC50 [1]: 1 µM | IC50 [2]: 0.59 µM | IC50 [3]: 0.073 µM | IC50 [4]: 0.92 µM

O=C(NCCCN1CCC(N2CCCCC2)CC1)C1=Cc2cc(Br)ccc2OC1
IC50 [1]: 5.09 µM | IC50 [2]: 1 µM | IC50 [3]: 4.13 µM | IC50 [4]: 0.08 µM

CCC(O)c1ccc(Br)cc1NC(=O)c1cccc(Cl)c1 (centres undefined)
IC50 [1]: > 25 µM | IC50 [2]: > 25 µM | IC50 [3]: 11.4 µM | IC50 [4]: 7.38 µM

CCOc1cc(CNC(C)C(O)c2ccccc2)cc(Cl)c1OCC (centres undefined)
IC50 [1]: 5.64 µM | IC50 [2]: 0.081 µM | IC50 [3]: 7.96 µM | IC50 [4]: 0.91 µM

CC1CC2=C(CC1CNCCCN(C)C)C(C)(C)CCC2 (centres undefined)
IC50 [1]: 0.13 µM | IC50 [2]: 0.58 µM | IC50 [3]: 5.9 µM | IC50 [4]: 2.12 µM

CCOc1cc(Cl)c(C(C)NC(=O)c2cccc(OC)c2)cc1OCC (centres undefined)
IC50 [1]: 2.45 µM | IC50 [2]: 25 µM | IC50 [3]: 18.7 µM | IC50 [4]: 7.3 µM

CCOc1ccc(C2N(C)c3ccccc3N2C)cc1
IC50 [1]: 3.53 µM | IC50 [2]: 5.5 µM | IC50 [3]: 0.5 µM | IC50 [4]: 0.85 µM

CCOC(=O)c1c[nH]c2c(CC)cccc2c1=O
IC50 [1]: 13.4 µM | IC50 [2]: 9.61 µM | IC50 [3]: 14.6 µM | IC50 [4]: 5.09 µM

CCOc1cc2c(cc1OCC)C(c1cc(Cl)c(O)c(OCC)c1)NCC2 (centres undefined)
IC50 [1]: 12.3 µM | IC50 [2]: 24 µM | IC50 [3]: 13.4 µM | IC50 [4]: > 25 µM

Nc1ccc(-c2nc3cc(Oc4ccc(Oc5ccc6[nH]c(-c7ccc(N)cc7)nc6c5)cc4)ccc3[nH]2)cc1
IC50 [1]: 3.86 µM | IC50 [2]: 10 µM | IC50 [3]: 4.52 µM | IC50 [4]: 18.9 µM

Cc1sc(NC(=O)c2ccco2)c(C(c2cccnc2)N2CCC(Cc3ccccc3)CC2)c1C (centres undefined)
IC50 [1]: 17.5 µM | IC50 [2]: 0.086 µM | IC50 [3]: 0.45 µM | IC50 [4]: 0.073 µM

COc1ccc(C2C(C(=O)Nc3cccc(OC)c3)c3ccccc3C(=O)N2C2CCCCC2)cc1 (centres undefined)
IC50 [1]: 12.5 µM | IC50 [2]: 10 µM | IC50 [3]: 1 µM | IC50 [4]: 0.22 µM

CCOc1ccc(CCNC(=O)c2cccs2)cc1OCC
IC50 [1]: 13.9 µM | IC50 [2]: 25 µM | IC50 [3]: 15.3 µM | IC50 [4]: > 25 µM

C=CC12CCN(CC1)C(C(O)c1ccnc3ccc(OC)cc13)C2 (centres undefined)
IC50 [1]: 3.21 µM | IC50 [2]: 17.3 µM | IC50 [3]: 13.1 µM | IC50 [4]: 14.4 µM

COc1cc(-c2nc(-c3ccccc3)c(-c3ccccc3)[nH]2)cc(OC)c1O
IC50 [1]: 12 µM | IC50 [2]: 8.03 µM | IC50 [3]: 21.7 µM | IC50 [4]: 3.34 µM

CCOc1ccc(CN2CCN(CC(O)COc3ccc(OCC(O)CN4CCN(Cc5ccc(OCC)cc5)CC4)cc3)CC2)cc1 (centres undefined)
IC50 [1]: 0.45 µM | IC50 [2]: 0.05 µM | IC50 [3]: 0.37 µM | IC50 [4]: 0.13 µM

COc1ccc(C)c2sc(N(Cc3cccnc3)C(=O)c3ccc(C#N)cc3)nc12
IC50 [1]: 5.69 µM | IC50 [2]: 0.24 µM | IC50 [3]: 15.2 µM | IC50 [4]: 0.55 µM

O=C(Nc1ccc(Cl)c(Cl)c1)Nc1ccc(Cl)c(Cl)c1
IC50 [1]: 0.21 µM | IC50 [2]: 0.59 µM | IC50 [3]: 4.91 µM | IC50 [4]: 2.95 µM

COc1ccc(Br)cc1C1Nc2ccc3ccccc3c2C2=C1C(=O)CC(c1ccccc1)C2 (centres undefined)
IC50 [1]: > 25 µM | IC50 [2]: > 25 µM | IC50 [3]: 13.1 µM | IC50 [4]: 17.3 µM

COc1ccc(CCN2C(=O)c3[nH]nc(-c4cc(Cl)c(C)cc4O)c3C2c2ccccc2F)cc1 (centres undefined)
IC50 [1]: 7.65 µM | IC50 [2]: 5.9 µM | IC50 [3]: 9.01 µM | IC50 [4]: 0.63 µM

COc1ccc(C2=C(c3ccc(OC)cc3)C3(c4ccccc4)C(=O)C2(c2ccccc2)C2C(=O)N(c4ccc(C)cc4)C(=O)C23)cc1 (centres undefined)
IC50 [1]: 14.2 µM | IC50 [2]: 15.4 µM | IC50 [3]: 14.7 µM | IC50 [4]: 14.1 µM

CC(C)c1ccc(CNCC(O)c2ccccc2)cc1 (centres undefined)
IC50 [1]: 10 µM | IC50 [2]: 14.3 µM | IC50 [3]: 12.4 µM | IC50 [4]: > 25 µM

CCN(CC)c1ccc(NC(=O)c2cccs2)cc1
IC50 [1]: 13.4 µM | IC50 [2]: 24.1 µM | IC50 [3]: 10 µM | IC50 [4]: 17.5 µM

Cc1cc(=O)oc2c1ccc1oc(C(=O)c3ccccc3)c(C)c12
IC50 [1]: 12.1 µM | IC50 [2]: 10.1 µM | IC50 [3]: 5.69 µM | IC50 [4]: 11.9 µM

COc1ccc(NC(=O)C2c3ccccc3C(=O)N(CC(C)C)C2c2cccs2)cc1 (centres undefined)
IC50 [1]: 8.02 µM | IC50 [2]: 12.6 µM | IC50 [3]: 9.09 µM | IC50 [4]: 17.3 µM

Clc1ccc2[nH]c3c(NCCCN4CCOCC4)ncnc3c2c1
IC50 [1]: 7.38 µM | IC50 [2]: 7.75 µM | IC50 [3]: 1 µM | IC50 [4]: 1.1 µM

O=C(NNc1cc(N2CCCC2)nc(N2CCCC2)n1)c1ccccc1
IC50 [1]: 5.3 µM | IC50 [2]: 4.58 µM | IC50 [3]: 5.5 µM | IC50 [4]: 13.9 µM

CCCCN(CCCC)S(=O)(=O)c1ccc(NC(=O)c2ccco2)cc1
IC50 [1]: 14.2 µM | IC50 [2]: 10 µM | IC50 [3]: 3.81 µM | IC50 [4]: 25 µM

COc1ccc(C(=O)Nc2ccc(Cl)cc2C(=O)Nc2ccncc2)cc1
IC50 [1]: 10 µM | IC50 [2]: 3.53 µM | IC50 [3]: 6.4 µM | IC50 [4]: 0.65 µM
